Test results as given in ChEMBL document CHEMBL6092203, “Discovery of Novel PROTAC-Based HPK1 Degraders with High Potency and Selectivity for Cancer Immunotherapy” (J Med Chem, 2024).
The source made the active and inactive calls. The calls are words filed in the database; no cut-off is given here.

What was measured:
[1] = Induction of p-SLP76 at Ser376 protein degradation in human Jurkat cells incubated for 24 hrs by Western blotting analysis; assay type: cell-based
Jurkat [2] = test: Effect on SLP76 total protein expression in human Jurkat cells at 1 to 2000 nM incubated for 24 hrs by Western blotting assay; assay type: functional, cell-based; conditions: dose 1-2000 nM
[3] = molecular target: Protein cereblon/Mitogen-activated protein kinase kinase kinase kinase 1 (Homo sapiens, UniProt Q92918+Q96SW2); test: PROTAC activity at CRBN/HPK1 in human Jurkat cells assessed as HPK1 degradation at 0.01 uM measured after 24 hrs by Western blotting analysis; assay type: cell-based
Sequence of Protein cereblon/Mitogen-activated protein kinase kinase kinase kinase 1 (Q92918 whole entry, looked up): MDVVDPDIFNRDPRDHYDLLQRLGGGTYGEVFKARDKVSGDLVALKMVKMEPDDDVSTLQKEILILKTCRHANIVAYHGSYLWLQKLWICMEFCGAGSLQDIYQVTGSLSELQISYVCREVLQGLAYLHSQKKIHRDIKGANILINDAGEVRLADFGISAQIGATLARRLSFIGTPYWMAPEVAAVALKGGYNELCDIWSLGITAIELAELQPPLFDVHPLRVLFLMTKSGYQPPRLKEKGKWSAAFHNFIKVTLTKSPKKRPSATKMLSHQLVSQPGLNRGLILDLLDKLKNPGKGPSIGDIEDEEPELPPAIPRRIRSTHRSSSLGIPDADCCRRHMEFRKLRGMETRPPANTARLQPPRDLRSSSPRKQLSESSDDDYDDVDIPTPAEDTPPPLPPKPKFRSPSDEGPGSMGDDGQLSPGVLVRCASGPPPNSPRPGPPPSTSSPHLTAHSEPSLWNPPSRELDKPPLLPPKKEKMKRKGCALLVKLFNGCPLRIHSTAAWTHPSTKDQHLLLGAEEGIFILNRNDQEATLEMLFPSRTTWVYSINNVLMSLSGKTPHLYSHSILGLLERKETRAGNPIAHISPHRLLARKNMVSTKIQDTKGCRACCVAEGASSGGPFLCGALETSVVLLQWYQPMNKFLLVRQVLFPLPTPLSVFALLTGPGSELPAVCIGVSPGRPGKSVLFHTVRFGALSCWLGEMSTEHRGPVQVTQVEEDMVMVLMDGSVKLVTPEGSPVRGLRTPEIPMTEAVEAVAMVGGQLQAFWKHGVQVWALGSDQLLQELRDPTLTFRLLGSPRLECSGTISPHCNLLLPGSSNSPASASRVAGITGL
Sequence of Protein cereblon/Mitogen-activated protein kinase kinase kinase kinase 1 (Q96SW2 whole entry, looked up): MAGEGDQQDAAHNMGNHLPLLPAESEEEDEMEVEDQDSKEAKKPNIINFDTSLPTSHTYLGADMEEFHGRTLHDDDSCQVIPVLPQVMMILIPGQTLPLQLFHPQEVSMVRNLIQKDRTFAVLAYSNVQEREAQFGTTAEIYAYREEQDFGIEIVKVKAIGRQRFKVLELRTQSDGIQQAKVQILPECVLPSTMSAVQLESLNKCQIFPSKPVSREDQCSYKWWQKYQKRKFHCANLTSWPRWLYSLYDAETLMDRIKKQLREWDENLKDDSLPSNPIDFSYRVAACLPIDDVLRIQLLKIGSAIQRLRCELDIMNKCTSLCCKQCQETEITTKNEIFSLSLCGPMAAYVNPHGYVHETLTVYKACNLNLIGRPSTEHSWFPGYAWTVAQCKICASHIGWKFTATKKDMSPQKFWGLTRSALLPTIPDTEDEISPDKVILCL

Jurkat [4] = test: Induction of GLK degradation in human Jurkat cells at 1 to 1000 nM incubated for 24 hrs by Western blotting analysis; assay type: cell-based; conditions: dose 1-1000 nM
[5] = molecular target: Mitogen-activated protein kinase kinase kinase kinase 4 (Homo sapiens) (UniProt O95819); test: Induction of HGK degradation in human Jurkat cells at 1 to 1000 nM incubated for 24 hrs by Western blotting analysis; assay type: cell-based; conditions: dose 1-1000 nM
Sequence of Mitogen-activated protein kinase kinase kinase kinase 4 (Homo sapiens) (O95819 2-1239 limits assumed): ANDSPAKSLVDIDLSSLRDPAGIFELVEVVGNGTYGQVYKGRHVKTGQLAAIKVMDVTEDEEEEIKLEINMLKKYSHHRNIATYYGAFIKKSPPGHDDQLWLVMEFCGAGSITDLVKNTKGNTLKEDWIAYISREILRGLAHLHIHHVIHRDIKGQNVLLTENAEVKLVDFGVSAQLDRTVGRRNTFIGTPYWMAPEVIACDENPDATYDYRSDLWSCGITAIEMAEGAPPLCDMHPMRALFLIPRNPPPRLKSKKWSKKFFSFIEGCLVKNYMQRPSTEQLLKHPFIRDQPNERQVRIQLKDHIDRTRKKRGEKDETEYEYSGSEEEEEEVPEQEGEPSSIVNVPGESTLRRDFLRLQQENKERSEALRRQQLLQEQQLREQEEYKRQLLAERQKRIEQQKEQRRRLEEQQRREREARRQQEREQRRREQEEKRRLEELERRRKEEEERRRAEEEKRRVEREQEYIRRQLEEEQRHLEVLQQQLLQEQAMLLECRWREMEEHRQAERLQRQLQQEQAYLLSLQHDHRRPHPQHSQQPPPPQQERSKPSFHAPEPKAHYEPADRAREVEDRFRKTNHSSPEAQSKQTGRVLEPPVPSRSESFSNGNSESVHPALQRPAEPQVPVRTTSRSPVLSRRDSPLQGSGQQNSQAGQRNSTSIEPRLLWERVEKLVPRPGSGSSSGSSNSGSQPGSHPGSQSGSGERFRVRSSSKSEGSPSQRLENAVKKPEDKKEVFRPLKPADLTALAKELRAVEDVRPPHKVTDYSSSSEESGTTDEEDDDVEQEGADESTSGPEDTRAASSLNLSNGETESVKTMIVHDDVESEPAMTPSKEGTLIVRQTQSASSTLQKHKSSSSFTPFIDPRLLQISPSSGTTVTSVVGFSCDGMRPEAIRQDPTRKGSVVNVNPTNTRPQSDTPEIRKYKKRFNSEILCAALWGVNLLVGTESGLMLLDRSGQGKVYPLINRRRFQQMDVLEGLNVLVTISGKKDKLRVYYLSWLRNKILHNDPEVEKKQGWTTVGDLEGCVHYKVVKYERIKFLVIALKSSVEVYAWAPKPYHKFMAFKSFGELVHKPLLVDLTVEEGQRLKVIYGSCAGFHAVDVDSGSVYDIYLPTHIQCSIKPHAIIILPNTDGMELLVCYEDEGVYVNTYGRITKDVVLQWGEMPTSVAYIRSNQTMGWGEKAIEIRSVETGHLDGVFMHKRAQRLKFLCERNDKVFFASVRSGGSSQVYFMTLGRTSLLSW

[6] = Plasma protein binding in rat at 10 uM incubated for 6 hrs by equilibrium dialysis based LC-MS/MS method; assay type: ADME, cell-free; conditions: read-out: PPB (converted)
[7] = Plasma protein binding in human at 10 uM incubated for 6 hrs by equilibrium dialysis based LC-MS/MS method; assay type: ADME, cell-free; conditions: read-out: PPB
Cytochrome P450 2C8 = molecular target: T1, Cytochrome P450 2C8 (Homo sapiens, UniProt P10632); test: Inhibition of CYP2C8 in human liver microsomes using amodiaquine as substrate in presence of NADPH; assay type: ADME, Microsome
T1 sequence (P10632 whole entry): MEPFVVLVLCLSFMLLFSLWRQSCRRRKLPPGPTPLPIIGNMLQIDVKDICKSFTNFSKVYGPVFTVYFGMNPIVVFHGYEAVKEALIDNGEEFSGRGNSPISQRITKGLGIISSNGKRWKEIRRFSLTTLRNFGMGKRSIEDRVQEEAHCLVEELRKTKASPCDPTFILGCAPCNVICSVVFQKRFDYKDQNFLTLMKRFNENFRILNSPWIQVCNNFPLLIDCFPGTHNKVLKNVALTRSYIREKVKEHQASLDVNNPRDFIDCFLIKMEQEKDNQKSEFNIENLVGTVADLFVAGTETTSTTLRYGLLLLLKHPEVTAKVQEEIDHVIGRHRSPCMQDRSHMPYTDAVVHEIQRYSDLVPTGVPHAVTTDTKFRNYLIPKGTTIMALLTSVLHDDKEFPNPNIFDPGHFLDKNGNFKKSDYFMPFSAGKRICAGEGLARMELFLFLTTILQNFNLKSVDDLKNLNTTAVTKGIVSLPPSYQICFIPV

Cytochrome P450 2C19 = Cytochrome P450 2C19 (Homo sapiens, UniProt P33261); test: Inhibition of CYP2C19 in human liver microsomes using S-mephenytoin as substrate in presence of NADPH; assay type: ADME, Microsome
Sequence of Cytochrome P450 2C19 (P33261 whole entry): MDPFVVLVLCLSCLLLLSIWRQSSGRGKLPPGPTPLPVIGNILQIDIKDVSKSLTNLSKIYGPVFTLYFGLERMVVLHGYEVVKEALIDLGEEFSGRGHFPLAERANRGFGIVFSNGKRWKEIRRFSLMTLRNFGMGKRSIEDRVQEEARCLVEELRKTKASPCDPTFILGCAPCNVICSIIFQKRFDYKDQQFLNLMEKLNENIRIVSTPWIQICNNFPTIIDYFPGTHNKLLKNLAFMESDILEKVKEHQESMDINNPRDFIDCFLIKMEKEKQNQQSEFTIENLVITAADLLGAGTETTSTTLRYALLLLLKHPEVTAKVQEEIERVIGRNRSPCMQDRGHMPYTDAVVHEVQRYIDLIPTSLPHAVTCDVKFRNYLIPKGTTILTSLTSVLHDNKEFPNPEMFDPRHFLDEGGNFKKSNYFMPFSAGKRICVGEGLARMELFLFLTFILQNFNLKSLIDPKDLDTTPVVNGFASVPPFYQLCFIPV

[8] = Metabolic stability in rat liver microsomes assessed as intrinsic clearance at 1 uM incubated for 45 mins by LC-MS/MS method; assay type: ADME, Microsome; conditions: read-out: CLH
[9] = Metabolic stability in human hepatocytes assessed as intrinsic clearance at 1 uM incubated for 90 mins by LC-MS/MS method; assay type: ADME, cell-based, Hepatocyte; conditions: 1.5 h
[10] = AUCinfinity in Beagle dog at 1 mg/kg, iv measured upto 24 hrs by LC-MS analysis; assay type: ADME, organism-based, Canis lupus familiaris; conditions: in vivo
[11] = Drug metabolism in rat hepatocytes assessed as phase 1 metabolites formation at 10 uM incubated for 120 mins by UHPLC-UV/MS/MS method; assay type: ADME, cell-based, Hepatocyte; conditions: 2 h
[12] = Drug metabolism in monkey hepatocytes assessed as phase 1 metabolites formation at 10 uM incubated for 120 mins by UHPLC-UV/MS/MS method; assay type: ADME, cell-based, Macaca mulatta, Hepatocyte; conditions: rhesus monkey, 2 h
[13] = Drug metabolism in rat hepatocytes assessed as phase 2 metabolites formation at 10 uM incubated for 120 mins by UHPLC-UV/MS/MS method; assay type: ADME, cell-based, Hepatocyte; conditions: 2 h
hERG (KCNH2) = hERG (KCNH2) (Homo sapiens, UniProt Q12809); test: Inhibition of human ERG at 3 uM by patch clamp method relative to control; assay type: toxicity
Sequence of hERG (KCNH2) (Q12809 whole entry): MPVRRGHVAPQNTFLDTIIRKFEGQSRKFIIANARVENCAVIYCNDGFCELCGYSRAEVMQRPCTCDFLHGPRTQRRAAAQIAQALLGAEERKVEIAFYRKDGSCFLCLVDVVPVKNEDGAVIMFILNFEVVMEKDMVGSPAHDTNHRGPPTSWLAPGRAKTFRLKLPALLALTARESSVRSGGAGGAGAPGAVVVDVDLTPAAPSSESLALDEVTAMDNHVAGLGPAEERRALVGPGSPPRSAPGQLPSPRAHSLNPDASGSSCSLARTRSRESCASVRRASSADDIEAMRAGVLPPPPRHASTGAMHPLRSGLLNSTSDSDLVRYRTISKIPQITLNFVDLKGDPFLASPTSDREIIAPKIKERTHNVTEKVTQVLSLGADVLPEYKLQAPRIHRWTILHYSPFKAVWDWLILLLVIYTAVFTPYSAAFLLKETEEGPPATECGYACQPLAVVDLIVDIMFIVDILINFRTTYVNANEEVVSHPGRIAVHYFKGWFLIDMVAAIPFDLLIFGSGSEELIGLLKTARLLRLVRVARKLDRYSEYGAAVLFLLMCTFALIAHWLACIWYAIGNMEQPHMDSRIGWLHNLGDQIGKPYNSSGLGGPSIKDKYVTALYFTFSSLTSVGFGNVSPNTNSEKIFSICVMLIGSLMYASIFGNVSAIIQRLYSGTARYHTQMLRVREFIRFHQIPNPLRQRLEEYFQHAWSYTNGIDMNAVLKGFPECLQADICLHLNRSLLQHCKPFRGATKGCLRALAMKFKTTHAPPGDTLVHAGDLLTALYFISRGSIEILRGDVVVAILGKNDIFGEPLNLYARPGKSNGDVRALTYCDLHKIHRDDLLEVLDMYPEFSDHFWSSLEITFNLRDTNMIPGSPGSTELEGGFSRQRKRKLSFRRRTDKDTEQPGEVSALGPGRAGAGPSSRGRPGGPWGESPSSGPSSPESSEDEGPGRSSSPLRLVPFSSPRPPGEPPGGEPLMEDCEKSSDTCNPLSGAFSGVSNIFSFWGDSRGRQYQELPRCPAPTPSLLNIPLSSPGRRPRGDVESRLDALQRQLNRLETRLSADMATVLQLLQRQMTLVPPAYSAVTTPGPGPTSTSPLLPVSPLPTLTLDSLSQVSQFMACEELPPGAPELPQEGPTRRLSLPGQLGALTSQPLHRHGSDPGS

[14] = Clearance in rat relative to hepatic blood flow; conditions: in vivo
[15] = Drug absorption in mouse at 10 to 100 mg/kg, po; assay type: ADME, organism-based; conditions: in vivo, dose 10-100 mg/kg
[16] = Drug distribution in rat kidney measured after 0.5 to 6 hrs; assay type: ADME, tissue-based; conditions: in vivo, time 0.5-6 hrs
[17] = Drug distribution in rat thyroid gland measured after 0.5 to 6 hrs; assay type: ADME, tissue-based; conditions: in vivo, time 0.5-6 hrs
[18] = Toxicity in C57BL/6J mouse assessed as body weight loss at 0.1 to 0.5 mg/kg, po bid administered for 3 to 4 weeks; assay type: organism-based; conditions: in vivo, dose lower 0.1 mg/kg, time lower 3 weeks, dose upper 0.5 mg/kg, time upper 4 weeks
MC-38 [19] = test: Synergistic antitumor activity against mouse MC38 cells implanted in C57BL/6J mouse assessed as tumor growth inhibition at 100 mg/kg, po QD measured after 4 weeks in presence of 5 mg/kg anti-PD1 and measured twice a week; assay type: functional; conditions: MC-38, 672 h, read-out: TGI
MC-38 [20] = test: Antitumor activity against mouse MC38 cells implanted in C57BL/6J mouse assessed as reduction in tumor volume at 0.1 mg/kg, po BID administered for 3 to 4 weeks (reference value: 1549.22 +/- 217.92 mm3); assay type: functional; conditions: time 3-4 weeks
MC-38 [21] = test: Synergistic antitumor activity against mouse MC38 cells implanted in C57BL/6J mouse assessed as reduction in tumor volume at 1 mg/kg, po bid administered for 3 to 4 weeks in presence of 5 mg/kg anti-PD1 and measured twice a week (reference value: 1549.22 +/- 217.92 mm3); assay type: functional; conditions: time 3-4 weeks
MC-38 [22] = test: Antitumor activity against mouse MC38 cells implanted in C57BL/6J mouse assessed as reduction in tumor weight at 0.1 mg/kg, po BID administered for 3 to 4 weeks (reference value: 1.79 +/- 0.24 g); assay type: functional; conditions: time 3-4 weeks
MC-38 [23] = test: Synergistic antitumor activity against mouse MC38 cells implanted in C57BL/6J mouse assessed as reduction in tumor weight at 0.5 mg/kg, po bid administered for 3 to 4 weeks in presence of 5 mg/kg anti-PD1 and measured twice a week (reference value: 1.79 +/- 0.24 g); assay type: functional; conditions: time 3-4 weeks
MC-38 [24] = test: Synergistic antitumor activity against mouse MC38 cells implanted in C57BL/6J mouse assessed as tumor weight inhibition rate at 100 mg/kg, po QD measured after 4 weeks in presence of 5 mg/kg anti-PD1 and measured twice a week; assay type: functional; design: scale not given: the % may be the effect or the level left
[25] = Tmax in male Sprague-Dawley rat at 2 mg/kg/day, po measured at day 1; assay type: ADME, organism-based; conditions: in vivo, time 1 day
[26] = AUC(0 to 24 hrs) in female Sprague-Dawley rat at 30 mg/kg/day, po measured at day 1; assay type: ADME, organism-based; conditions: in vivo, time 1 day
[27] = Toxicity in C57BL/6J mouse assessed as change in body weight at 0.1 to 1 mg/kg, po bid measured after 28 days; assay type: organism-based; conditions: in vivo, 672 h, dose 0.1-1 mg/kg, time 28 day
in vivo = conditions: female, Sprague-Dawley, rat, po, 30 mg/kg
in vitro = conditions: rhesus monkey, liver microsomes

In the case of O=C1CCN(c2cc(C(=O)N3CCC(CC4CCN(c5ccc(-c6cnc7[nH]cc(-c8cnn(CC(F)(F)F)c8)c7n6)cn5)CC4)CC3)ccc2Cl)C(=O)N1, the DC50 [1] is reported as 0.00563 µM, the Activity (Jurkat [2]) is reported as “inactive” and the Activity [3] is reported as “Active”. The Activity (Jurkat [4]) was “inactive”, the Activity [5] was “inactive” and the fraction unbound at 6 h, 10 µM [6] was 0.0008. The fraction unbound at 6 h, 10 µM [7] was 0.001, the IC50 (Cytochrome P450 2C8) was greater than 10 µM and the IC50 (Cytochrome P450 2C19) was greater than 10 µM. It also gave a microsomal CLint at 1 µM [8] of 5.62 µL/min/mg, a CLH [9] of 1.92 µL/min/mg and an AUC(0-inf) [10] of 996 ng·h/mL. For the same compound, the Drug metabolism [11] was “metabolite_detected”, the Drug metabolism [12] was “metabolite_detected” and the Drug metabolism [13] was “metabolite_detected”. The inhibition at 3 µM (hERG (KCNH2)) was 4.36%, the clearance [14] was 16.6 mL/min/kg and the Drug absorption [15] was “Active”. For the same compound, the Drug uptake [16] was “Active”, the Drug uptake [17] was “Active” and the Activity [18] was “Non-toxic”. It also gave an inhibition in vivo at 100 mg/kg (MC-38 [19]) of 91%, an Activity (MC-38 [20]) of 1107.91 mm3 and an Activity (MC-38 [21]) of 338.13 mm3. It also gave an Activity (MC-38 [22]) of 1.4 g, an Activity (MC-38 [23]) of 0.24 g and an Activity (MC-38 [24]) of 83.04%. For the same compound, the Tmax [25] was 8.67 h, the AUC(0-t) at 24 h [26] was 51300 ng·h/mL and the Activity [27] was “Non-toxic”. For the same compound, the AUC at 336 h (in vivo) was 46000 ng·h/mL and the half-life at 0.75 h, 1 µM (in vitro) was 0.607 h.
